Source: article PMC8709289, “Tetrahydroimidazo[4,5-c]pyridine-Based Inhibitors of Porphyromonas gingivalis Glutaminyl Cyclase” (Pharmaceuticals, 2021)
Like-named read-outs stand apart in the source and are kept apart here.

Experiments:
[1] = target: PgQC (glutaminyl cyclase from P. gingivalis) (Porphyromonas gingivalis, UniProt Q7MT37); assay: Inhibition of P. gingivalis glutaminyl cyclase, fluorogenic substrate H-Gln-AMC; format: biochemical
Description: (§2) The enzymatic activity of recombinant QCs were evaluated using the fluorogenic substrate H-Gln-AMC as described previously [25]. For inhibitor testing, compounds were added with 1% (v/v) DMSO in the reaction mixture. Inhibitory constants were determined using concentrations of H-Gln-AMC varying from 1/4 KM to 2 KM and a final concentration of QC in a range between 20 and 50 nM. Progress curves were fitted to the general equation for competitive inhibition using GraFit software (Version 7, Erithacus software Ltd., Horley, UK).

[2] = target: hQC (human glutaminyl cyclase) (Homo sapiens, UniProt Q16769); assay: Inhibition of human glutaminyl cyclase, fluorogenic substrate H-Gln-AMC; format: biochemical
Description: (§3) The enzymatic activity of recombinant QCs were evaluated using the fluorogenic substrate H-Gln-AMC as described previously [25]. For inhibitor testing, compounds were added with 1% (v/v) DMSO in the reaction mixture.

PiQC = PiQC (Prevotella intermedia, UniProt A0A3R7XL21); assay: Inhibition of Prevotella intermedia glutaminyl cyclase, fluorogenic substrate H-Gln-AMC; format: biochemical; settings: recombinant QC, competitive inhibition fit
Description: as §3

[3] = Cytotoxicity, cell viability in SHSY-5Y; format: cell-based; settings: human, SHSY-5Y cells; 30 µM compound
Source text: (§1) Table 3 Inhibition of related glutaminyl cyclases from bacteria and human and cytotoxicity of selected inhibitors. | column: 8k; 8t; 8w

[4] = Cytotoxicity, cell viability in Hep-G2; format: cell-based; settings: human, Hep-G2 cells; 30 µM compound
Source text: as §1

TfQC = assay: Inhibition of Tannerella forsythia glutaminyl cyclase, fluorogenic substrate H-Gln-AMC; settings: read-out: Ki TfQC; recombinant QC, competitive inhibition fit
Description: as §2

[5] = recombinant QC, competitive inhibition fit, read-out: Ki PgQC
[6] = recombinant QC, competitive inhibition fit, read-out: Ki hQC

Sequence of PgQC (glutaminyl cyclase from P. gingivalis) (Q7MT37 entry or part of it): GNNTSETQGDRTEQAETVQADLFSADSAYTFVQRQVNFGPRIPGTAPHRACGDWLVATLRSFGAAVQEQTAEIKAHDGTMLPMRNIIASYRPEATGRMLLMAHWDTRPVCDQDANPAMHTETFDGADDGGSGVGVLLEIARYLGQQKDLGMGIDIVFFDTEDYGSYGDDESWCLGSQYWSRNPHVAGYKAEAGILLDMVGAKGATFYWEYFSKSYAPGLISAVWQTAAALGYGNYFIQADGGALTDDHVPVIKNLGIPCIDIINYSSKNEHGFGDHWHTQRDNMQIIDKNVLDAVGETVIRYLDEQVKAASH
Sequence of hQC (human glutaminyl cyclase) (Q16769 29-361): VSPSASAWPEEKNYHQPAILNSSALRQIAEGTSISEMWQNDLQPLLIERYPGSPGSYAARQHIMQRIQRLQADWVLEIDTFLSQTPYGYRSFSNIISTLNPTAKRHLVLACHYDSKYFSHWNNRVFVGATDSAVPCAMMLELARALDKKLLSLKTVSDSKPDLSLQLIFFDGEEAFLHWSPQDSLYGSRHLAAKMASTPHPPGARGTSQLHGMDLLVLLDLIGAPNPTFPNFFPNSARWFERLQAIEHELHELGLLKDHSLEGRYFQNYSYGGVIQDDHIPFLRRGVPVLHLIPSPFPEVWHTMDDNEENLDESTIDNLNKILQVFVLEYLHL
Sequence of PiQC (A0A3R7XL21 entry or part of it): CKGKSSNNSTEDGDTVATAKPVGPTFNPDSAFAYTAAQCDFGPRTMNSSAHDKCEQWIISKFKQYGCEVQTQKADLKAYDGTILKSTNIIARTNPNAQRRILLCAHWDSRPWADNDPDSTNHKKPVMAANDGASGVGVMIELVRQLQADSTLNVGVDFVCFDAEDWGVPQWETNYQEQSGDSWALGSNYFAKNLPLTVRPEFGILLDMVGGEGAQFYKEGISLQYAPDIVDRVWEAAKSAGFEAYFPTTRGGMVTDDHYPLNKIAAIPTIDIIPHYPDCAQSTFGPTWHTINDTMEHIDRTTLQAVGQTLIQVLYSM

SMILES: c1ccc(CNCCc2c[nH]cn2)cc1 [6a, N-Benzylhistamine]
- Inhibition of PgQC at 10 µM [1]: no inhibition @ 10 µM

SMILES: c1ccc(CN2CCc3[nH]cnc3C2)cc1 [7a, 5-Benzyl-3,4,6,7-tetrahydroimidazo[4,5-c]pyridine]
- Ki [1, 5]: 909 ± 5 nM

SMILES: c1ccc(CCN2CCc3[nH]cnc3C2)cc1 [7b, 5-(2-Phenylethyl)-3,4,6,7-tetrahydroimidazo[4,5-c]pyridine]
- Ki [1, 5]: 6470 ± 400 nM

SMILES: c1ccc(CN2CCc3[nH]cnc3C23COC3)cc1 [7c, 5-Benzylspiro[6,7-dihydro-3H-imidazo[4,5-c]pyridine-4,3′-oxetane]]
- Ki [1, 5]: 1760 ± 145 nM

SMILES: CC1c2nc[nH]c2CCN1Cc1ccccc1 (stereo not shown) [7d, 5-Benzyl-4-methyl-3,4,6,7-tetrahydroimidazo[4,5-c]pyridine]
- Ki [1, 5]: 3080 ± 40 nM

SMILES: c1ccc(CN2CCc3nc[nH]c3C2c2ccccc2)cc1 (stereo not shown) [7e, 5-Benzyl-4-phenyl-3,4,6,7-tetrahydroimidazo[4,5-c]pyridine]
- Inhibition of PgQC at 10 µM [1]: no inhibition @ 10 µM

SMILES: O=C(c1ccccc1)N1CCc2[nH]cnc2C1 [8a, Phenyl(3,4,6,7-tetrahydroimidazo[4,5-c]pyridin-5-yl)methanone]
- Ki [1, 5]: 435 ± 15 nM

SMILES: O=C(Cc1ccccc1)N1CCc2[nH]cnc2C1 [8b, 2-Phenyl-1-(3,4,6,7-tetrahydroimidazo[4,5-c]pyridin-5-yl)ethanone]
- Ki [1, 5]: 1680 ± 80 nM

SMILES: O=C(CCc1ccccc1)N1CCc2[nH]cnc2C1 [8c, 3-Phenyl-1-(3,4,6,7-tetrahydroimidazo[4,5-c]pyridin-5-yl)propan-1-one]
- Ki [1, 5]: 1750 ± 60 nM

SMILES: O=C(/C=C/c1ccccc1)N1CCc2[nH]cnc2C1 [8d, (E)-3-Phenyl-1-(3,4,6,7-tetrahydroimidazo[4,5-c]pyridin-5-yl)prop-2-en-1-one]
- Ki [1, 5]: 1570 ± 25 nM

SMILES: O=C(c1ccc(F)cc1)N1CCc2[nH]cnc2C1 [8e, (4-Fluorophenyl)-(3,4,6,7-tetrahydroimidazo[4,5-c]pyridin-5-yl)methanone]
- Ki [1, 5]: 879 ± 8 nM

SMILES: O=C(c1cccc(F)c1)N1CCc2[nH]cnc2C1 [8f, (3-Fluorophenyl)-(3,4,6,7-tetrahydroimidazo[4,5-c]pyridin-5-yl)methanone]
- Ki [1, 5]: 322 ± 6 nM

SMILES: O=C(c1cc(F)c(F)c(F)c1)N1CCc2[nH]cnc2C1 [8g, (3,4,6,7-Tetrahydroimidazo[4,5-c]pyridin-5-yl)(3,4,5-trifluoro-phenyl)methanone]
- Ki [1, 5]: 904 ± 7 nM

SMILES: O=C(c1ccc(Cl)cc1)N1CCc2[nH]cnc2C1 [8h, (4-Chlorophenyl)-(3,4,6,7-tetrahydroimidazo[4,5-c]pyridin-5-yl)methanone]
- Ki [1, 5]: 682 ± 25 nM

SMILES: O=C(c1cccc(Cl)c1)N1CCc2[nH]cnc2C1 [8i, (3-Chlorophenyl)-(3,4,6,7-tetrahydroimidazo[4,5-c]pyridin-5-yl)methanone]
- Ki [1, 5]: 174 ± 14 nM

SMILES: O=C(c1ccc(Cl)c(Cl)c1)N1CCc2[nH]cnc2C1 [8j, (3,4-Dichlorophenyl)-(3,4,6,7-tetrahydroimidazo[4,5-c]pyridin-5-yl)methanone]
- Ki [1, 5]: 257 ± 16 nM

SMILES: O=C(c1cc(Cl)cc(Cl)c1)N1CCc2nc[nH]c2C1 [8k, (3,5-Dichlorophenyl)-(3,4,6,7-tetrahydroimidazo[4,5-c]pyridin-5-yl)methanone]
- Ki [1, 5]: 100 ± 6 nM
- Ki [2, 6]: 387 ± 64 nM
- Ki (PiQC): 63 ± 7 nM
- viability at 30 µM [3]: 119%
- viability at 30 µM [4]: 92%
- Ki (TfQC): 176 ± 3 nM

SMILES: COc1ccc(C(=O)N2CCc3[nH]cnc3C2)cc1 [8l, (4-Methoxyphenyl)-(3,4,6,7-tetrahydroimidazo[4,5-c]pyridin-5-yl)methanone]
- Ki [1, 5]: 833 ± 49 nM

SMILES: COc1cccc(C(=O)N2CCc3[nH]cnc3C2)c1 [8m, (3-Methoxyphenyl)-(3,4,6,7-tetrahydroimidazo[4,5-c]pyridin-5-yl)methanone]
- Ki [1, 5]: 335 ± 6 nM

SMILES: COc1ccc(C(=O)N2CCc3[nH]cnc3C2)cc1OC [8n, (3,4-Dimethoxyphenyl)-(3,4,6,7-tetrahydroimidazo[4,5-c]pyridin-5-yl)methanone]
- Ki [1, 5]: 1470 ± 304 nM

SMILES: COc1cc(OC)cc(C(=O)N2CCc3[nH]cnc3C2)c1 [8o, (3,5-Dimethoxyphenyl)-(3,4,6,7-tetrahydroimidazo[4,5-c]pyridin-5-yl)methanone]
- Ki [1, 5]: 928 ± 21 nM

SMILES: O=C(c1ccc2c(c1)OCCO2)N1CCc2[nH]cnc2C1 [8p, (2,3-Dihydrobenzo[b][1,4]dioxin-6-yl)(1,4,6,7-tetrahydro-5H-imidazo-[4,5-c]pyridin-5-yl)methanone]
- Ki [1, 5]: 1340 ± 219 nM

SMILES: O=C(c1ccc2c(c1)OCO2)N1CCc2[nH]cnc2C1 [8q, Benzo[d][1,3]dioxol-5-yl(3,4,6,7-tetrahydroimidazo[4,5-c]pyridin-5-yl)methanone]
- Ki [1, 5]: 560 ± 4 nM

SMILES: CCCOc1cccc(C(=O)N2CCc3[nH]cnc3C2)c1 [8r, (3-Propoxyphenyl)-(3,4,6,7-tetrahydroimidazo[4,5-c]pyridin-5-yl)methanone]
- Ki [1, 5]: 780 ± 24 nM

SMILES: COc1cc(C(=O)N2CCc3[nH]cnc3C2)ccc1F [8s, (4-Fluoro-3-methoxyphenyl)-(3,4,6,7-tetrahydroimidazo[4,5-c]pyridin-5-yl)methanone]
- Ki [1, 5]: 1240 ± 113 nM

SMILES: COc1cc(Cl)cc(C(=O)N2CCc3[nH]cnc3C2)c1 [8t, (3-Chloro-5-methoxyphenyl)(1,4,6,7-tetrahydro-5H-imidazo[4,5-c]pyridin-5-yl)methanone]
- Ki [1, 5]: 87 ± 6 nM
- Ki [2, 6]: 385 ± 96 nM
- Ki (PiQC): 96 ± 12 nM
- viability at 30 µM [3]: 128%
- viability at 30 µM [4]: 96%
- Ki (TfQC): 221 ± 19 nM

SMILES: O=C(c1ccc(-c2ccccc2)cc1)N1CCc2[nH]cnc2C1 [8u, [1,1′-Biphenyl]-4-yl(3,4,6,7-tetrahydroimidazo[4,5-c]pyridin-5-yl)methanone]
- Ki [1, 5]: 1900 ± 71 nM

SMILES: O=C(c1cccc(-c2ccccc2)c1)N1CCc2[nH]cnc2C1 [8v, [1,1′-Biphenyl]-3-yl-(3,4,6,7-tetrahydroimidazo[4,5-c]pyridin-5-yl)methanone]
- Ki [1, 5]: 547 ± 41 nM

SMILES: O=C(c1ccc2ccccc2c1)N1CCc2nc[nH]c2C1 [8w, Naphthalen-2-yl-(3,4,6,7-tetrahydroimidazo[4,5-c]pyridin-5-yl)methanone]
- Ki [1]: 126 ± 9 nM
- Ki [2, 6]: 132 ± 11 nM
- Ki (PiQC): 117 ± 2 nM
- viability at 30 µM [3]: 127%
- viability at 30 µM [4]: 94%
- Ki (TfQC): 185 ± 10 nM

SMILES: COc1ccc(NC(=S)NCCCn2ccnc2)cc1OC [PQ50, reference compound]
- Ki [1, 5]: 6000 ± 150 nM

SMILES: c1ccc2[nH]cnc2c1 [compound 1, benzimidazole, reference compound]
- Ki [1, 5]: 32000 ± 1400 nM

SMILES: c1c[nH]cn1 [compound 2, imidazole, reference compound]
- Ki [1, 5]: 350000 ± 23000 nM

SMILES: c1ccc(Cn2ccnc2)cc1 [compound 3, N-benzylimidazole, reference compound]
- Ki [1, 5]: 10000 ± 200 nM
- Ki [2]: 17000 ± 3000 nM
